Reference: paper PMC9259591, “Irigenin, a novel lead from Iris confusa for management of Helicobacter pylori infection with selective COX-2 and HpIMPDH inhibitory potential” (Scientific Reports, 2022)
Values after ≈ are worked out from the molar mass of the structure shown. Values joined by “and” are separate entries in the source; they are usually repeats but may differ in a detail not shown here. Identical values can stand only once. Like-named read-outs stand apart in the source and are kept apart here.

What was measured:
H. pylori ATCC 700392 = assay: anti-Helicobacter pylori activity, microwell dilution method with MTT; type: cell-based; conditions: for MIC: read-out: MIC (H. pylori)
Method: The anti-Helicobacter pylori activity of the PF and NPF as well as the isolated compounds was evaluated against H. pylori ATCC 700392 (type strain, obtained from the American Type Culture Collection unit (ATCC), using microwell dilution method and clarithromycin as standard drug[37]. The detailed procedures were described in the supplementary file.
The anti-Helicobacter pylori activity of the PF and NPF as well as the isolated compounds was evaluated against H. pylori ATCC 700392 (a type strain, obtained from the American Type Culture Collection unit (ATCC), using microwell dilution method and clarithromycin as standard drug ^1. The tested samples were prepared in dimethyl sulfoxide and successive ten twofold dilutions (125- 0.24 µg/mL) were carried out in a 96-well plate. Each microplate well included forty μL of Brain Heart Infusion growth medium and 10% fetal bovine serum (FBS), ten μL of inoculum and fifty μL of the tested sample. The plates were incubated for 3 days, in 5% oxygen, 10% carbon dioxide, 85 % nitrogen atmosphere at 37°C. Forty μL of 3- (4, 5-dimethyl-thiazol-2-yl)- 2,5-diphenyl-tetrazolium bromide (MTT) at a final concentration of 0.5 mg/mL freshly prepared in H2O was added to each well and incubated for 30 min. The bacteria were biologically active when change to purple color was observed ^1. While no change in MTT color indicated inhibition. Solvent control (DMSO) and the standard antibiotic (clarithromycin) were used as negative and positive controls, respectively. The H. pylori inhibition % was calculated using the given formula:
% Inhibition = Abs control – Abs sample × 100 /Abs control.

[1] = molecular target: T1, H. pylori inosine-5′-monophosphate dehydrogenase (HpIMPDH) (Helicobacter pylori, UniProt P56088); assay: In vitro HpIMPDH inhibition assay (NADH fluorescence); type: biochemical; parameters: HpIMPDH inhibitory activity: unit not given here
T1 sequence (P56088 1-481): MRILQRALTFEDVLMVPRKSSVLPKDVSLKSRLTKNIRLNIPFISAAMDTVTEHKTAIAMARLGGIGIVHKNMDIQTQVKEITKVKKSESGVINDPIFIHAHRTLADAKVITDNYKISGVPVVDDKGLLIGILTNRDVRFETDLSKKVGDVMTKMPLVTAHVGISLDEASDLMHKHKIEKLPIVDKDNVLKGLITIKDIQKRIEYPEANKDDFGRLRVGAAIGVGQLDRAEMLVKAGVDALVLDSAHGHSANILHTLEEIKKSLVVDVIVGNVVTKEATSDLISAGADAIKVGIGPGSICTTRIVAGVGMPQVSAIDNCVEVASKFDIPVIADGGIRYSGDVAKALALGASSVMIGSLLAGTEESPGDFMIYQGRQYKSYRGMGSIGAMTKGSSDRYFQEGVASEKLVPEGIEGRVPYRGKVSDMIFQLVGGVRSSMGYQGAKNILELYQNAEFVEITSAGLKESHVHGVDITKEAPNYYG
Method: The assay was carried out according to Galal[40] and was described in detail in the supplementary file.
Thus, irigenin was selected to test its HpIMPDH inhibitory activity by monitoring NADH production at concentration range of 10–0.078 µM compared to clarithromycin as standard drug. Also, to examine irigenin selectivity toward the bacterial IMPDH, human hIMPDH2 inhibition potential was assayed.
The assay was carried out in a final volume of two hundred μL in black 96-well plate (Tarsons Products Pvt. Ltd., Kolkata, India) with a reaction buffer composed of one hundred mM KCl, fifty mM Tris–HCl (pH 8.6), and one mM dithiothreitol (DTT). One hundred nM H. pylori inosine-5′-monophosphate dehydrogenase (HpIMPDH) in the presence/absence of the tested compound were used. The assay mixture was then incubated at 37 °C for 10 min, and the reaction was initiated by the adding 250 μM of inosine 5ʹ‐monophosphate (IMP) and 300 μM of nicotinamide adenine dinucleotide (NAD^+) substrate buffer. The assay was allowed to proceed for 45 min at 37 °C.
The formed NADH was measured by recording the fluorescence (excitation 340 nm, emission 440 nm) using PerkinElmer EnVision Multilabel Reader (Waltham, MA) at an interval of one min. DMSO and clarithromycin were used as vehicle control and positive control, respectively. The concentration of the tested sample leading to 50% HpIMPDH inhibition (IC50) was estimated.

Q: For COc1cc(-c2coc3cc(O)c(OC)c(O)c3c2=O)cc(O)c1OC [Irigenin (P3), 3′,5,7-trihydroxy-4′,5′,6 trimethoxyisoflavone], which MIC (H. pylori ATCC 700392; Helicobacter pylori, ATCC700392) is on record?
A: 3.9 µg/mL and 10.8 µM

Q: And the “MIC (H. pylori)” value (H. pylori ATCC 700392; concentration required for 100% inhibition, H. pylori ATCC 700392, ND = not detected)?
A: 3.90 µg/mL (≈ 10.8 µM)

Q: What about the MIC (H. pylori ATCC 700392; concentration required for 100% inhibition, H. pylori ATCC 700392) of the same compound?
A: 10.82 µM (≈ 3.9 µg/mL)

Q: What about the IC50 [1] of the same compound?
A: 2070 ± 1900 nM

Q: What about the HpIMPDH inhibitory activity ([1]; sample conc. 0.078 (range 10–0.078 µM)) of the same compound?
A: 0.00

Q: What about the HpIMPDH inhibitory activity ([1]; sample conc. 0.156 (range 10–0.078 µM)) of the same compound?
A: 0.00

Q: What about the HpIMPDH inhibitory activity ([1]; sample conc. 0.313 (range 10–0.078 µM)) of the same compound?
A: 6.14 ± 1.90

Q: And the HpIMPDH inhibitory activity ([1]; sample conc. 0.625 (range 10–0.078 µM))?
A: 10.25 ± 2.80

Q: And the HpIMPDH inhibitory activity ([1]; sample conc. 1.25 (range 10–0.078 µM))?
A: 24.19 ± 1.70

Q: And the HpIMPDH inhibitory activity ([1]; sample conc. 2.5 (range 10–0.078 µM))?
A: 59.31 ± 1.40

Q: What about the HpIMPDH inhibitory activity ([1]; sample conc. 5 (range 10–0.078 µM)) of the same compound?
A: 71.08 ± 1.30

Q: What about the HpIMPDH inhibitory activity ([1]; sample conc. 10 (range 10–0.078 µM)) of the same compound?
A: 83.25 ± 0.58
